Literature values in US20090191608A1, “Pancreatic Islet Cell Preparation and Transplantation” (Baylor Research Institute, priority 2008, published 2009).

Key:
[1] = in vivo

Molecule | Occurrence of mouth ulcers (most common side effect) | Half-life [1] | Time to reach a new steady-state level after the change of dose [1] [weeks] | Incidence of heparin-induced thrombocytopenia (in vivo) [%]
CO[C@H]1C[C@@H]2CC[C@@H](C)[C@@](O)(O2)C(=O)C(=O)N2CCCC[C@H]2C(=O)O[C@H]([C@H](C)C[C@@H]2CC[C@@H](O)[C@H](OC)C2)CC(=O)[C@H](C)/C=C(\C)[C@@H](O)[C@@H](OC)C(=O)[C@H](C)C[C@H](C)/C=C/C=C/C=C/1C [Sirolimus] | up to 85% | approximately 3 days | 2 | –
Enoxaparin [Lovenox] | – | – | – | 0.2
